Measurements: article PMC10041525, “New Dual Inhibitors of Bacterial Topoisomerases with Broad-Spectrum Antibacterial Activity and In Vivo Efficacy against Vancomycin-Intermediate Staphylococcus aureus” (Journal of Medicinal Chemistry, 2023)

System: 100 A. baumannii strains (50 MDR, 50 non-MDR)
Assay: MIC broth microdilution at IHMA Europe, panel of 100 strains
Assay type: cell-based
Settings: Acinetobacter baumannii

Measured: MIC

C[C@H]1COc2c(N3CCN(C)CC3)c(F)cc3c(=O)c(C(=O)O)cn1c23.C[C@H]1COc2c(N3CCN(C)CC3)c(F)cc3c(=O)c(C(=O)O)cn1c23.O [Levofloxacin, levofloxacin]
16 µg/mL: A. baumannii IHMA 1814276, Lebanon 2018, MDR | A. baumannii IHMA 1815198, Kuwait 2018, MDR | A. baumannii IHMA 1849819, Kuwait 2018, MDR | A. baumannii IHMA 1963732, Turkey 2019, MDR | A. baumannii IHMA 1971673, Latvia 2019, MDR | A. baumannii IHMA 1984665, Lithuania 2019, MDR | A. baumannii IHMA 1986738, Turkey 2019, MDR | A. baumannii IHMA 2020360, Croatia 2019, MDR | A. baumannii IHMA 2035089, Serbia 2019, MDR | A. baumannii IHMA 2051503, Serbia 2019, MDR | A. baumannii IHMA 2155340, Kenya 2020, MDR | A. baumannii IHMA 2156634, Turkey 2020, MDR | A. baumannii IHMA 2156709, Turkey 2020, MDR | A. baumannii IHMA 2177232, Lithuania 2020, MDR | A. baumannii IHMA 2177489, Lithuania 2020, MDR
4 µg/mL: A. baumannii IHMA 1769782, Israel 2018, MDR | A. baumannii IHMA 1791877, Israel 2018, MDR | A. baumannii IHMA 2031524, Greece 2019, MDR | A. baumannii IHMA 2180142, Malaysia 2020, MDR
≤ 0.25 µg/mL: A. baumannii IHMA 1769393, Lithuania 2018, Non-MDR | A. baumannii IHMA 1769910, Israel 2018, Non-MDR | A. baumannii IHMA 1790317, Czech Republic 2018, Non-MDR | A. baumannii IHMA 1790916, Romania 2018, Non-MDR | A. baumannii IHMA 1795669, Tunisia 2018, Non-MDR | A. baumannii IHMA 1821468, South Africa 2018, Non-MDR | A. baumannii IHMA 1829500, Georgia 2018, Non-MDR | A. baumannii IHMA 1830924, United Kingdom 2018, Non-MDR | A. baumannii IHMA 1849829, Kuwait 2018, Non-MDR | A. baumannii IHMA 1857118, Slovenia 2018, Non-MDR | A. baumannii IHMA 1863631, France 2018, Non-MDR | A. baumannii IHMA 1870054, United States 2018, Non-MDR | A. baumannii IHMA 1884428, Italy 2018, Non-MDR | A. baumannii IHMA 1884990, Germany 2018, Non-MDR | A. baumannii IHMA 1900538, Turkey 2018, Non-MDR | A. baumannii IHMA 1913773, Kenya 2018, Non-MDR | A. baumannii IHMA 1926285, Qatar 2018, Non-MDR | A. baumannii IHMA 1957343, Portugal 2019, Non-MDR | A. baumannii IHMA 1967860, Spain 2019, Non-MDR | A. baumannii IHMA 1975075, Israel 2019, Non-MDR | A. baumannii IHMA 1977077, Kuwait 2019, Non-MDR | A. baumannii IHMA 1986678, Turkey 2019, Non-MDR | A. baumannii IHMA 1995161, Czech Republic 2019, Non-MDR | A. baumannii IHMA 1997936, Morocco 2019, Non-MDR | A. baumannii IHMA 1999178, Belgium 2019, Non-MDR | A. baumannii IHMA 2014367, Jordan 2019, Non-MDR | A. baumannii IHMA 2014931, South Africa 2019, Non-MDR | A. baumannii IHMA 2019315, Romania 2019, Non-MDR | A. baumannii IHMA 2031511, Greece 2019, Non-MDR | A. baumannii IHMA 2034657, Tunisia 2019, Non-MDR | A. baumannii IHMA 2035134, Serbia 2019, Non-MDR | A. baumannii IHMA 2058329, Slovenia 2019, Non-MDR | A. baumannii IHMA 2065587, France 2019, Non-MDR | A. baumannii IHMA 2099294, United Kingdom 2019, Non-MDR | A. baumannii IHMA 2129256, Qatar 2019, Non-MDR | A. baumannii IHMA 2157614, Australia 2020, Non-MDR | A. baumannii IHMA 2178574, Ukraine 2020, Non-MDR
0.5 µg/mL: A. baumannii IHMA 2180134, Malaysia 2020, Non-MDR
8 µg/mL: A. baumannii IHMA 1792961, Jordan 2018, MDR | A. baumannii IHMA 1815856, Israel 2018, MDR | A. baumannii IHMA 1983151, Greece 2019, MDR | A. baumannii IHMA 1987162, Croatia 2019, MDR | A. baumannii IHMA 1993615, Turkey 2019, MDR | A. baumannii IHMA 2003279, Turkey 2019, MDR | A. baumannii IHMA 2038976, Hungary 2019, MDR | A. baumannii IHMA 2154584, Israel 2020, MDR | A. baumannii IHMA 2181370, Morocco 2020, MDR | A. baumannii IHMA 2183729, Argentina 2020, MDR
> 16 µg/mL: A. baumannii IHMA 1926288, Qatar 2018, MDR | A. baumannii IHMA 1994284, Italy 2019, MDR
